Experimental data taken from patent publication US9540391B2, “Isomannide derivatives as inhibitors of soluble epoxide hydrolase” (SANOFI, priority 2013, dated 2017).
Structures can show the parent of a compound that is named as a salt.

molecular target: T1, recombinant sEH (Homo sapiens, UniProt P34913); assay: biochemical screening assay for inhibition of soluble epoxide hydrolase (fluorometric, Phome substrate)
T1 construct: made in house; host or cells: Sf9 insect cells
T1 sequence (P34913 1-555): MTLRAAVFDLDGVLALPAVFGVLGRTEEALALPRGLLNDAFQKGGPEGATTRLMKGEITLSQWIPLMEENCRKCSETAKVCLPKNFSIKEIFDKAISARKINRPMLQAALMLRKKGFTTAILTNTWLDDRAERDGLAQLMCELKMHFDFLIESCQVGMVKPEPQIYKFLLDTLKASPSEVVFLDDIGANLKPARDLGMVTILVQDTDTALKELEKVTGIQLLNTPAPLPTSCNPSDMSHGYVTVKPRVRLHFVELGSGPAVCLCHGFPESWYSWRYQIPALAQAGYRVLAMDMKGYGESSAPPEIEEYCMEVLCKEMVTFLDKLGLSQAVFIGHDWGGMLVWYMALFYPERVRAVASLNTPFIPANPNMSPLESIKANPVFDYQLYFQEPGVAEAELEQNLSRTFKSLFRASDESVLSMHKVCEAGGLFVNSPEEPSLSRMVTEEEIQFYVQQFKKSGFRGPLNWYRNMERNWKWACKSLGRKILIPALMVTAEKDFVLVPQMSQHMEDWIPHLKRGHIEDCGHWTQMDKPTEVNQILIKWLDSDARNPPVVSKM
Protocol: The ability of the compounds of the formula I to inhibit soluble epoxide hydrolase can be determined as follows:
Compounds were tested in a biochemical screening assay using recombinant sEH purified from Sf9 insect cells and an artificial substrate, (3-phenyl-oxiranyl)-acetic acid cyano-(6-methoxy-naphtalen-2-yl)-methyl ester, Phome. The biochemical assay was performed in analogy to a fluorometric method described in the literature (P. D. Jones et al., Anal. Biochem. 2005, 343, 66-75). The assay principle bases on the sEH-catalyzed hydrolysis of an artificial α-cyano-ester substrate. 0-deacetylation liberates a cyanohydrin intermediate that rapidly decomposes to the highly fluorescent 6-methoxy-2-naphtaldehyde. To discriminate sample autofluorescence, the assay was carried out as a kinetic measurement with two time points. The first measurement is performed immediately before addition of the substrate and the second measurement is done after completion of the assay. The assay format is either in 96- or in 384-well format. Details of the assay using a 96-well plate format are described below. 40 μL recombinant sEH enzyme and 5 μL test compound are pre-incubated for 15 minutes at 30° C. Following pre-incubation, the reaction is started by addition of 5 μL Phome. The assay mixture containing 2 nM final sEH concentration, test compound ranging in a concentration from 0.0001-10 μM and 5 μM Phome is incubated for 60 minutes at 30° C.
Fluorescence can be measured with any suitable detector for instance a TECAN Safire or Tecan Ultra at […]. % inhibition of recombinant sEH activity is used for calculation of corresponding IC50 values as illustrated and described in the examples.
The NCBI gene bank reference sequence with the accession number NM_001979 for EPHX2/sEH was applied for recombinant protein production:
The following commercially available materials have been used: • Incubation reagent: 25 mM Hepes (Sigma-Aldrich, Cat. No H-3375), 0.01% bovine albumin (Sigma-Aldrich Cat. No PA9205) • Substrate: 3-Phenyl-oxiranyl)-acetic acid cyano-(6-methoxy-naphtalen-2-yl)-methyl ester, Phome (Biozol Cat. No 10003134) • Microtiter plates: 96-well plates (Greiner Cat. No 655180; Costar Cat. No 3915)

IC50 [nM] | SMILES
47 | O=C(NC1CCCCC1)N[C@H]1CO[C@H]2[C@@H]1OC[C@@H]2Oc1ccc(C(F)(F)F)nc1 [Example 42, 1-Cyclohexyl-3-[(3S,3aR,6S,6aS)-6-(6-trifluoromethyl-pyridin-3-yloxy)-hexahydro-furo[3,2-b]furan-3-yl]-urea]
86 | Cc1nnc(S[C@H]2CO[C@H]3[C@@H]2OC[C@@H]3NC(=O)NC2CCCCC2)o1 [Example 43, 1-Cyclohexyl-3-[(3S,3aR,6S,6aS)-6-(5-methyl-[1,3,4]oxadiazol-2-ylsulfanyl)-hexahydro-furo[3,2-b]furan-3-yl]-urea]
42 | O=C(NC1CCCCC1)N[C@H]1CO[C@H]2[C@@H]1OC[C@@H]2Oc1cncnc1 [Example 44, 1-Cyclohexyl-3-[(3S,3aR,6S,6aS)-6-(pyrimidin-5-yloxy)-hexahydro-furo[3,2-b]furan-3-yl]-urea]
25 | O=C(NC1CCCCC1)N[C@H]1CO[C@H]2[C@@H]1OC[C@@H]2SCC(F)(F)F [Example 45, 1-Cyclohexyl-3-[(3S,3aR,6S,6aS)-6-(2,2,2-trifluoro-ethylsulfanyl)-hexa-hydro-furo[3,2-b]furan-3-yl]-urea]
50 | O=C(NC1CCCCC1)N[C@H]1CO[C@H]2[C@@H]1OC[C@@H]2Sc1ncccn1 [Example 46, 1-Cyclohexyl-3-[(3S,3aR,6S,6aS)-6-(pyrimidin-2-ylsulfanyl)-hexahydro-furo[3,2-b]furan-3-yl]-urea]
51 | Cc1cc(C)nc(S[C@H]2CO[C@H]3[C@@H]2OC[C@@H]3NC(=O)NC2CCCCC2)n1 [Example 47, 1-Cyclohexyl-3-[(3S,3aR,6S,6aS)-6-(4,6-dimethyl-pyrimidin-2-ylsulfanyl)-hexahydro-furo[3,2-b]furan-3-yl]-urea]
11 | O=C(NC1CCCCC1)N[C@H]1CO[C@H]2[C@@H]1OC[C@@H]2Sc1ncc[nH]1 [Example 48, 1-Cyclohexyl-3-[(3S,3aR,6S,6aS)-6-(1H-imidazol-2-ylsulfanyl)-hexa-hydro-furo[3,2-b]furan-3-yl]-urea]
3 | O=C(NC1CCCCC1)N[C@H]1CO[C@H]2[C@@H]1OC[C@@H]2Sc1ccncn1 [Example 49, 1-Cyclohexyl-3-[(3S,3aR,6S,6aS)-6-(pyrimidin-4-ylsulfanyl)-hexahydro-furo[3,2-b]furan-3-yl]-urea; hydrochloride]
10 | Cc1cnc(S[C@H]2CO[C@H]3[C@@H]2OC[C@@H]3NC(=O)NC2CCCCC2)nc1 [Example 50, 1-Cyclohexyl-3-[(3S,3aR,6S,6aS)-6-(5-methyl-pyrimidin-2-ylsulfanyl)-hexahydro-furo[3,2-b]furan-3-yl]-urea; hydrochloride]
8 | O=C(NC1CCCCC1)N[C@H]1CO[C@H]2[C@@H]1OC[C@@H]2Oc1ccc(Cl)nc1 [Example 51, 1-[(3S,3aR,6S,6aS)-6-(6-Chloro-pyridin-3-yloxy)-hexahydro-furo[3,2-b]furan-3-yl]-3-cyclohexyl-urea]
1 | O=C(NC1CCCCC1)N[C@H]1CO[C@H]2[C@@H]1OC[C@@H]2Sc1ncc(Cl)cn1 [Example 52, 1-[(3S,3aR,6S,6aS)-6-(5-Chloro-pyrimidin-2-ylsulfanyl)-hexahydro-furo[3,2-b]furan-3-yl]-3-cyclohexyl-urea]
< 1 | Cc1cc(C)c(S[C@H]2CO[C@H]3[C@@H]2OC[C@@H]3NC(=O)NC2CCCCC2)cn1 [Example 53, 1-Cyclohexyl-3-[(3S,3aR,6S,6aS)-6-(4,6-dimethyl-pyridin-3-ylsulfanyl)-hexahydro-furo[3,2-b]furan-3-yl]-urea]
1 | O=C(NC1CCCCC1)N[C@H]1CO[C@H]2[C@@H]1OC[C@@H]2Sc1ccccn1 [Example 54, 1-Cyclohexyl-3-[(3S,3aR,6S,6aS)-6-(pyridin-2-ylsulfanyl)-hexahydro-furo[3,2-b]furan-3-yl]-urea]
< 1 | O=C(NC1CCCCC1)N[C@H]1CO[C@H]2[C@@H]1OC[C@@H]2Sc1cnccn1 [Example 55, 1-Cyclohexyl-3-[(3S,3aR,6S,6aS)-6-(pyrazin-2-ylsulfanyl)-hexahydro-furo[3,2-b]furan-3-yl]-urea]
2 | O=C(NC1CCCCC1)N[C@H]1CO[C@H]2[C@@H]1OC[C@@H]2Sc1nccs1 [Example 56, 1-Cyclohexyl-3-[(3S,3aR,6S,6aS)-6-(thiazol-2-ylsulfanyl)-hexahydro-furo[3,2-b]furan-3-yl]-urea]
3 | Cc1ccc(S[C@H]2CO[C@H]3[C@@H]2OC[C@@H]3NC(=O)NC2CCCCC2)nn1 [Example 57, 1-Cyclohexyl-3-[(3S,3aR,6S,6aS)-6-(6-methyl-pyridazin-3-ylsulfanyl)-hexahydro-furo[3,2-b]furan-3-yl]-urea]
2 | Cc1csc(S[C@H]2CO[C@H]3[C@@H]2OC[C@@H]3NC(=O)NC2CCCCC2)n1 [Example 58, 1-Cyclohexyl-3-[(3S,3aR,6S,6aS)-6-(4-methyl-thiazol-2-ylsulfanyl)-hexa-hydro-furo[3,2-b]furan-3-yl]-urea]
2 | Cc1ccc(S[C@H]2CO[C@H]3[C@@H]2OC[C@@H]3NC(=O)NC2CCCCC2)nc1 [Example 59, 1-Cyclohexyl-3-[(3S,3aR,6S,6aS)-6-(5-methyl-pyridin-2-ylsulfanyl)-hexa-hydro-furo[3,2-b]furan-3-yl]-urea]
4 | N#Cc1ccc(S[C@H]2CO[C@H]3[C@@H]2OC[C@@H]3NC(=O)NC2CCCCC2)nc1 [Example 60, 1-[(3S,3aR,6S,6aS)-6-(5-Cyano-pyridin-2-ylsulfanyl)-hexahydro-furo[3,2-b]furan-3-yl]-3-cyclohexyl-urea]
< 1 | Cc1cc(S[C@H]2CO[C@H]3[C@@H]2OC[C@@H]3NC(=O)NC2CCCCC2)nc(C)n1 [Example 61, 1-Cyclohexyl-3-[(3S,3aR,6S,6aS)-6-(2,6-dimethyl-pyrimidin-4-ylsulfanyl)-hexahydro-furo[3,2-b]furan-3-yl]-urea]
1 | Cc1nc(S[C@H]2CO[C@H]3[C@@H]2OC[C@@H]3NC(=O)NC2CCCCC2)sc1C [Example 62, 1-Cyclohexyl-3-[(3S,3aR,6S,6aS)-6-(4,5-dimethyl-thiazol-2-ylsulfanyl)-hexahydro-furo[3,2-b]furan-3-yl]-urea]
1 | O=C(NC1CCCCC1)N[C@H]1CO[C@H]2[C@@H]1OC[C@@H]2Sc1ccc(Cl)cn1 [Example 63, 1-[(3S,3aR,6S,6aS)-6-(5-Chloro-pyridin-2-ylsulfanyl)-hexahydro-furo[3,2-b]furan-3-yl]-3-cyclohexyl-urea]
2 | O=C(NC1CCCCC1)N[C@H]1CO[C@H]2[C@@H]1OC[C@@H]2Oc1cnc(Cl)c(F)c1 [Example 64, 1-[(3S,3aR,6S,6aS)-6-(6-Chloro-5-fluoro-pyridin-3-yloxy)-hexahydro-furo[3,2-b]furan-3-yl]-3-cyclohexyl-urea]
2 | Cc1cc(O[C@H]2CO[C@H]3[C@@H]2OC[C@@H]3NC(=O)NC2CCCCC2)cnc1Cl [Example 65, 1-[(3S,3aR,6S,6aS)-6-(6-Chloro-5-methyl-pyridin-3-yloxy)-hexahydro-furo[3,2-b]furan-3-yl]-3-cyclohexyl-urea]
2 | Cc1cc(Cl)ncc1O[C@H]1CO[C@H]2[C@@H]1OC[C@@H]2NC(=O)NC1CCCCC1 [Example 66, 1-[(3S,3aR,6S,6aS)-6-(6-Chloro-4-methyl-pyridin-3-yloxy)-hexahydro-furo[3,2-b]furan-3-yl]-3-cyclohexyl-urea]
1 | Cc1cc(O[C@H]2CO[C@H]3[C@@H]2OC[C@@H]3NC(=O)NC2CCCCC2)cc(C)n1 [Example 67, 1-Cyclohexyl-3-[(3S,3aR,6S,6aS)-6-(2,6-dimethyl-pyridin-4-yloxy)-hexa-hydro-furo[3,2-b]furan-3-yl]-urea]
2 | CC(C)(O)c1cncc(O[C@H]2CO[C@H]3[C@@H]2OC[C@@H]3NC(=O)NC2CCCCC2)c1 [Example 68, 1-cyclohexyl-3-{(3S,3aR,6S,6aS)-6-[5-(1-hydroxy-1-methyl-ethyl)-pyridin-3-yloxy]-hexahydro-furo[3,2-b]furan-3-yl}-urea; hydrochloride]
